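The compound was tested at five concentrations on cells cultured in 96-well plates, with a 48-hour exposure period. TGI: concentration producing complete growth inhibition.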
How the values were obtained:
Experiment in all cases: inhibition of tumour cell growth, NCI panel, 48 h
A549 NSCLC = test system: A549 NSCLC
UACC-62 melanoma = test system: UACC-62 melanoma
PC-3 prostate = test system: PC-3 prostate
MOLT-4 leukemia = test system: MOLT-4 leukemia
UO-31 renal = test system: UO-31 renal
MDA-N = test system: MDA-N
SN12C renal = test system: SN12C renal
SF-295 CNS = test system: SF-295 CNS
K-562 leukemia = test system: K-562 leukemia
OVCAR-3 ovarian = test system: OVCAR-3 ovarian
NCI-H522 lung = test system: NCI-H522 lung
CAKI-1 renal = test system: CAKI-1 renal
MALME-3M melanoma = test system: MALME-3M melanoma
BT-549 breast = test system: BT-549 breast
U251 CNS = test system: U251 CNS
T-47D breast = test system: T-47D breast
786-0 renal = test system: 786-0 renal
SNB-19 CNS = test system: SNB-19 CNS
HCC-2998 colon = test system: HCC-2998 colon
MCF7 breast = test system: MCF7 breast
SK-MEL-28 melanoma = test system: SK-MEL-28 melanoma
HS 578T breast = test system: HS 578T breast
OVCAR-8 ovarian = test system: OVCAR-8 ovarian
HT29 colon = test system: HT29 colon
OVCAR-5 ovarian = test system: OVCAR-5 ovarian
SNB-75 CNS = test system: SNB-75 CNS
HOP-62 NSCLC = test system: HOP-62 NSCLC
RXF 393 renal = test system: RXF 393 renal
HCT-116 colon = test system: HCT-116 colon
MDA-MB-435 = test system: MDA-MB-435
NCI-H460 lung = test system: NCI-H460 lung
TK-10 renal = test system: TK-10 renal
HCT-15 colon = test system: HCT-15 colon
HL-60(TB) leukemia = test system: HL-60(TB) leukemia
IGROV1 ovarian = test system: IGROV1 ovarian
UACC-257 melanoma = test system: UACC-257 melanoma
EKVX NSCLC = test system: EKVX NSCLC
SW-620 colon = test system: SW-620 colon
A498 renal = test system: A498 renal
COLO 205 colon = test system: COLO 205 colon
KM12 colon = test system: KM12 colon
ACHN renal = test system: ACHN renal
OVCAR-4 ovarian = test system: OVCAR-4 ovarian
SK-MEL-5 melanoma = test system: SK-MEL-5 melanoma
SF-539 CNS = test system: SF-539 CNS
HOP-92 NSCLC = test system: HOP-92 NSCLC
MDA-MB-231 breast = test system: MDA-MB-231 breast
LOX IMVI melanoma = test system: LOX IMVI melanoma
NCI-H23 lung = test system: NCI-H23 lung
RPMI-8226 leukemia = test system: RPMI-8226 leukemia
SK-MEL-2 melanoma = test system: SK-MEL-2 melanoma
M14 melanoma = test system: M14 melanoma
NCI/ADR-RES ovarian = test system: NCI/ADR-RES ovarian
NCI-H226 lung = test system: NCI-H226 lung
CCRF-CEM leukemia = test system: CCRF-CEM leukemia
SF-268 CNS = test system: SF-268 CNS
SK-OV-3 ovarian = test system: SK-OV-3 ovarian
DU-145 prostate = test system: DU-145 prostate
SR leukemia = test system: SR leukemia

## O=C(O)c1ccccc1Sc1ccccc1[N+](=O)[O-]
A549 NSCLC
  TGI: > 100 µM
UACC-62 melanoma
  TGI: > 100 µM
PC-3 prostate
  TGI: > 100 µM
MOLT-4 leukemia
  TGI: > 100 µM
UO-31 renal
  TGI: > 100 µM
MDA-N
  TGI: > 100 µM
SN12C renal
  TGI: > 100 µM
SF-295 CNS
  TGI: > 100 µM
K-562 leukemia
  TGI: > 100 µM
OVCAR-3 ovarian
  TGI: > 100 µM
NCI-H522 lung
  TGI: > 100 µM
CAKI-1 renal
  TGI: > 100 µM
MALME-3M melanoma
  TGI: > 100 µM
BT-549 breast
  TGI: > 100 µM
U251 CNS
  TGI: > 100 µM
T-47D breast
  TGI: > 100 µM
786-0 renal
  TGI: > 100 µM
SNB-19 CNS
  TGI: > 100 µM
HCC-2998 colon
  TGI: > 100 µM
MCF7 breast
  TGI: > 100 µM
SK-MEL-28 melanoma
  TGI: > 100 µM
HS 578T breast
  TGI: > 100 µM
OVCAR-8 ovarian
  TGI: > 100 µM
HT29 colon
  TGI: > 100 µM
OVCAR-5 ovarian
  TGI: > 100 µM
SNB-75 CNS
  TGI: > 100 µM
HOP-62 NSCLC
  TGI: > 100 µM
RXF 393 renal
  TGI: > 100 µM
HCT-116 colon
  TGI: > 100 µM
MDA-MB-435
  TGI: > 100 µM
NCI-H460 lung
  TGI: > 100 µM
TK-10 renal
  TGI: > 100 µM
HCT-15 colon
  TGI: > 100 µM
HL-60(TB) leukemia
  TGI: > 100 µM
IGROV1 ovarian
  TGI: > 100 µM
UACC-257 melanoma
  TGI: > 100 µM
EKVX NSCLC
  TGI: > 100 µM
SW-620 colon
  TGI: > 100 µM
A498 renal
  TGI: > 100 µM
COLO 205 colon
  TGI: > 100 µM
KM12 colon
  TGI: > 100 µM
ACHN renal
  TGI: > 100 µM
OVCAR-4 ovarian
  TGI: > 100 µM
SK-MEL-5 melanoma
  TGI: > 100 µM
SF-539 CNS
  TGI: > 100 µM
HOP-92 NSCLC
  TGI: > 100 µM
MDA-MB-231 breast
  TGI: > 100 µM
LOX IMVI melanoma
  TGI: > 100 µM
NCI-H23 lung
  TGI: > 100 µM
RPMI-8226 leukemia
  TGI: > 100 µM
SK-MEL-2 melanoma
  TGI: > 100 µM
M14 melanoma
  TGI: > 100 µM
NCI/ADR-RES ovarian
  TGI: > 100 µM
NCI-H226 lung
  TGI: > 100 µM
CCRF-CEM leukemia
  TGI: > 100 µM
SF-268 CNS
  TGI: > 100 µM
SK-OV-3 ovarian
  TGI: > 100 µM
DU-145 prostate
  TGI: > 100 µM

## C/C(=N/OC(=O)c1cccc2c(=O)c3ccccc3[nH]c12)[C@H]1CC[C@H]2[C@@H]3CCC4=C/C(=N/OC(=O)c5cccc6c(=O)c7ccccc7[nH]c56)CC[C@]4(C)[C@H]3CC[C@]12C
A549 NSCLC
  TGI: > 100 µM
UACC-62 melanoma
  TGI: 32.1 µM
PC-3 prostate
  TGI: 31.5 µM
MOLT-4 leukemia
  TGI: 39.6 µM
UO-31 renal
  TGI: 28.5 µM
MDA-N
  TGI: 30.3 µM
SN12C renal
  TGI: 30.6 µM
SF-295 CNS
  TGI: 34.6 µM
K-562 leukemia
  TGI: > 100 µM
OVCAR-3 ovarian
  TGI: 34.4 µM
NCI-H522 lung
  TGI: 26.2 µM
CAKI-1 renal
  TGI: 47.2 µM
MALME-3M melanoma
  TGI: 37.3 µM
BT-549 breast
  TGI: 34.8 µM
SR leukemia
  TGI: 25.3 µM
U251 CNS
  TGI: 29.6 µM
T-47D breast
  TGI: 58.8 µM
786-0 renal
  TGI: 44.7 µM
SNB-19 CNS
  TGI: 39.4 µM
HCC-2998 colon
  TGI: 26.9 µM
MCF7 breast
  TGI: 26.4 µM
HS 578T breast
  TGI: > 100 µM
OVCAR-8 ovarian
  TGI: 33.3 µM
HT29 colon
  TGI: 28.8 µM
OVCAR-5 ovarian
  TGI: 33.7 µM
SNB-75 CNS
  TGI: 97.6 µM
HOP-62 NSCLC
  TGI: 51.2 µM
HCT-116 colon
  TGI: 25 µM
MDA-MB-435
  TGI: 33.3 µM
TK-10 renal
  TGI: 45.2 µM
HCT-15 colon
  TGI: 27 µM
HL-60(TB) leukemia
  TGI: 34 µM
IGROV1 ovarian
  TGI: 37.1 µM
UACC-257 melanoma
  TGI: 33.4 µM
EKVX NSCLC
  TGI: 71.3 µM
SW-620 colon
  TGI: 27.1 µM
COLO 205 colon
  TGI: 30.3 µM
KM12 colon
  TGI: 38.2 µM
ACHN renal
  TGI: 29.5 µM
OVCAR-4 ovarian
  TGI: > 100 µM
SK-MEL-5 melanoma
  TGI: 26.4 µM
SF-539 CNS
  TGI: 29.5 µM
HOP-92 NSCLC
  TGI: 42.6 µM
MDA-MB-231 breast
  TGI: 30.6 µM
LOX IMVI melanoma
  TGI: 26.7 µM
NCI-H23 lung
  TGI: 29.9 µM
RPMI-8226 leukemia
  TGI: 14.6 µM
SK-MEL-2 melanoma
  TGI: 32.8 µM
M14 melanoma
  TGI: 29.7 µM
NCI/ADR-RES ovarian
  TGI: 43.1 µM
NCI-H226 lung
  TGI: 52.8 µM
CCRF-CEM leukemia
  TGI: 16.3 µM
SF-268 CNS
  TGI: 45.5 µM
SK-OV-3 ovarian
  TGI: 93.2 µM
DU-145 prostate
  TGI: 79.3 µM

Reference: PubChem BioAssay (NCI)
